In patent publication US20250136606A1, “MODULATORS OF TRPML, THEIR COMPOSITIONS AND METHODS OF USE” (Caraway Therapeutics, Inc., priority 2021, published 2025):
pEC50: −log10 of the molar value.

How the values were obtained:
Type in all cases: cell-based
TRPML3 = target: T1, TRPML3 (Homo sapiens, UniProt Q8TDD5); assay: Fluorescent TRPML3 assay (performed as for TRPML1, substituting the TRPML3 subtype)
T1 construct: expressed in transfected cells
T1 sequence (Q8TDD5 1-553): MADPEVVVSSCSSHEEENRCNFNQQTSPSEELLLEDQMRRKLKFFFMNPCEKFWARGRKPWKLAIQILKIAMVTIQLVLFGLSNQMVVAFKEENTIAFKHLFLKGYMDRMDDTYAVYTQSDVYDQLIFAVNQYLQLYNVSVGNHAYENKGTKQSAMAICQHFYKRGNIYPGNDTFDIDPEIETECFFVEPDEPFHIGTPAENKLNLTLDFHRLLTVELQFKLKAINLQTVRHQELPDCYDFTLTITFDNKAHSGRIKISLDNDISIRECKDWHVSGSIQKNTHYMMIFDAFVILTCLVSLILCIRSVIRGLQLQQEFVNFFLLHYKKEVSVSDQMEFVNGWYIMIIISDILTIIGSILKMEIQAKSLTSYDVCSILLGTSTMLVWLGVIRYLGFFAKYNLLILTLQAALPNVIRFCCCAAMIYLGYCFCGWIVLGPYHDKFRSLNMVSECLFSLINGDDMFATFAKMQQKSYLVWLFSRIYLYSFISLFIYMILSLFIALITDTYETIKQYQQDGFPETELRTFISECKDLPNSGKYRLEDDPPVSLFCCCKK
How it was run: (§1)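 Calcium-influx readout: Fluo4 fluorescence at 480/540 nm, normalised to positive and negative controls per plate, EC50 fitted by non-linear regression. Cells were HEK-293 Trex stable lines, channel expression induced overnight with 0.5 ug/mL doxycycline; tested at 20 micromolar down to 6 nanomolar final, half-log steps, triplicate.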

TRPML1 = TRPML1 (Homo sapiens, UniProt Q9GZU1); assay: Fluorescent TRPML1 assay (Fluo4-AM calcium fluorescence in doxycycline-induced HEK-293 Trex cells)
How it was run: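 First, expression of surface-targeted mutant human TRPML1 is induced in HEK-293 Trex cells with 0.5 ug/mL doxycycline the day before. Next, cells take up 1 micromolar Fluo4-AM in Ringer's with 0.1% Pluronic. Finally, they are added to compounds (6 nanomolar–20 micromolar final) in 10 mM calcium Ringer's and fluorescence is read.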

TRPML2 = target: T2, TRPML2 (Homo sapiens, UniProt Q8IZK6); assay: Fluorescent TRPML2 assay (performed as for TRPML1, substituting the TRPML2 subtype)
T2 construct: expressed in transfected cells
T2 sequence (Q8IZK6 1-566): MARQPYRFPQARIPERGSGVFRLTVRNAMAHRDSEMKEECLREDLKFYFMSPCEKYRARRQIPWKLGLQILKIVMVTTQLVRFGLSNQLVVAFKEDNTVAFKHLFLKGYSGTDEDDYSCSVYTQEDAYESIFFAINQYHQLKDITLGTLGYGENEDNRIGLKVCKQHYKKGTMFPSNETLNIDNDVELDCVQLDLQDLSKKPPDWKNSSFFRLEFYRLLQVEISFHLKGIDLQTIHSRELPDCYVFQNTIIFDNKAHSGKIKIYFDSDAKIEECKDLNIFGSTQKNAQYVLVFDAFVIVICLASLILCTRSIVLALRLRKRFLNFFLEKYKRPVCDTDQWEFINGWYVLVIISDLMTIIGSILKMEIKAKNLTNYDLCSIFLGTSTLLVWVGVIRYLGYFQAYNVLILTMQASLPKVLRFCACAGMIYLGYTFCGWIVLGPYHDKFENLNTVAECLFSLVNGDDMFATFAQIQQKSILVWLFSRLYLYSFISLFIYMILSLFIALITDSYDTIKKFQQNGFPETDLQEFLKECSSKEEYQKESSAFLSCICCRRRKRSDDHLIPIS
How it was run: as §1

Chain of TRPML1 (Q9GZU1 whole entry L15A/L16A/L577A/L578A, form open): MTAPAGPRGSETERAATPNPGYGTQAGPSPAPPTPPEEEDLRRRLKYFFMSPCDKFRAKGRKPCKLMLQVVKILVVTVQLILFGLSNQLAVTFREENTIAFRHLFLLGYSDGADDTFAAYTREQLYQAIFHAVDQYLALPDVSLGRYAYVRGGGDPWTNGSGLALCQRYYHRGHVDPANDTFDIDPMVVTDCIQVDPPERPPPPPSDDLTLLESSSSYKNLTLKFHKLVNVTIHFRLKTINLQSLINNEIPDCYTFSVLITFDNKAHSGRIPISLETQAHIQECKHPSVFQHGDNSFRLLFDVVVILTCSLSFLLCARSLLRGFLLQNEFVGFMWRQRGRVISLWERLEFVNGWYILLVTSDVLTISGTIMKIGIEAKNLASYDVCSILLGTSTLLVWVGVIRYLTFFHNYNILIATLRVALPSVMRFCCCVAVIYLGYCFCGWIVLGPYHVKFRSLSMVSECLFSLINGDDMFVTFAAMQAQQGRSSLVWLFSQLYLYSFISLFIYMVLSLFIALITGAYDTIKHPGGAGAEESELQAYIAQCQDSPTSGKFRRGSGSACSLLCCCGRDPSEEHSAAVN

## CCCOc1cn(-c2cc(C#N)ccn2)c2ncnc(N3C[C@@H](C)N(C(=O)OC(C)(C)C)C[C@@H]3C)c12 [Compound 507, tert-butyl (2R,5S)-4-(7-(4-cyanopyridin-2-yl)-5-propoxy-7H-pyrrolo[2,3-d]pyrimidin-4-yl)-2,5-dimethylpiperazine-1-carboxylate]
TRPML3
  pEC50: > 7.00
TRPML1
  pEC50: > 7.00
TRPML2
  pEC50: > 7.00

## C[C@@H]1CN(c2ncnc3c2c(C(F)(F)F)cn3-c2cc(C#N)ncn2)[C@@H](C)CN1C(=O)OC(C)(C)C [Compound 509, tert-butyl (2R,5S)-4-(7-(6-cyanopyrimidin-4-yl)-5-(trifluoromethyl)-7H-pyrrolo[2,3-d]pyrimidin-4-yl)-2,5-dimethylpiperazine-1-carboxylate]
TRPML3
  pEC50: > 7.00
TRPML1
  pEC50: > 7.00
TRPML2
  pEC50: > 7.00

## C[C@@H]1CN(c2ncnc3c2c(C(F)(F)F)cn3-c2nccc(C#N)n2)[C@@H](C)CN1C(=O)OC(C)(C)C [Compound 510, tert-butyl (2R,5S)-4-(7-(4-cyanopyrimidin-2-yl)-5-(trifluoromethyl)-7H-pyrrolo[2,3-d]pyrimidin-4-yl)-2,5-dimethylpiperazine-1-carboxylate]
TRPML3
  pEC50: > 7.00
TRPML1
  pEC50: 6.30 to 7.00
TRPML2
  pEC50: < 5.70

## C[C@@H]1CN(c2ncnc3c2c(C(F)F)cn3-c2cc(C#N)ccn2)CCN1C(=O)OC(C)(C)C [Compound 511, tert-butyl (R)-4-(7-(4-cyanopyridin-2-yl)-5-(difluoromethyl)-7H-pyrrolo[2,3-d]pyrimidin-4-yl)-2-methylpiperazine-1-carboxylate]
TRPML3
  pEC50: > 7.00
TRPML1
  pEC50: > 7.00
TRPML2
  pEC50: > 7.00

## CCC(CC)OC(=O)N1C[C@H](C)N(c2ncnc3c2c(C(F)(F)F)cn3-c2cc(C#N)ccn2)C[C@H]1C [Compound 512, pentan-3-yl (2R,5S)-4-(7-(4-cyanopyridin-2-yl)-5-(trifluoromethyl)-7H-pyrrolo[2,3-d]pyrimidin-4-yl)-2,5-dimethylpiperazine-1-carboxylate]
TRPML3
  pEC50: > 7.00
TRPML1
  pEC50: > 7.00
TRPML2
  pEC50: 6.30 to 7.00

## C[C@@H]1CN(c2ncnc3c2c(C(F)(F)F)cn3-c2cccc(C#N)c2)[C@@H](C)CN1C(=O)OC(C)(C)C [Compound 513, tert-butyl (2R,5S)-4-(7-(3-cyanophenyl)-5-(trifluoromethyl)-7H-pyrrolo[2,3-d]pyrimidin-4-yl)-2,5-dimethylpiperazine-1-carboxylate]
TRPML3
  pEC50: > 7.00
TRPML1
  pEC50: > 7.00
TRPML2
  pEC50: 5.70 to 6.30

## C[C@H]1CN(C(=O)OC(C)(C)C)CCN1c1ncnc2c1c(C(F)F)cn2-c1cc(C#N)ccn1 [Compound 514, tert-butyl (S)-4-(7-(4-cyanopyridin-2-yl)-5-(difluoromethyl)-7H-pyrrolo[2,3-d]pyrimidin-4-yl)-3-methylpiperazine-1-carboxylate]
TRPML3
  pEC50: > 7.00
TRPML1
  pEC50: > 7.00
TRPML2
  pEC50: > 7.00

## C[C@@H]1CN(c2ncnc3c2c(C(F)(F)F)cn3-c2cc(C#N)ccn2)[C@@H](C)CN1C(=O)OC1CCC1 [Compound 516, cyclobutyl (2R,5S)-4-(7-(4-cyanopyridin-2-yl)-5-(trifluoromethyl)-7H-pyrrolo[2,3-d]pyrimidin-4-yl)-2,5-dimethylpiperazine-1-carboxylate]
TRPML3
  pEC50: > 7.00
TRPML1
  pEC50: > 7.00
TRPML2
  pEC50: > 7.00

## Cc1cc(C#N)cc(-n2cc(C(F)(F)F)c3c(N4C[C@@H](C)N(C(=O)OC(C)(C)C)C[C@@H]4C)ncnc32)n1 [Compound 517, tert-butyl (2R,5S)-4-(7-(4-cyano-6-methylpyridin-2-yl)-5-(trifluoromethyl)-7H-pyrrolo[2,3-d]pyrimidin-4-yl)-2,5-dimethylpiperazine-1-carboxylate]
TRPML3
  pEC50: > 7.00
TRPML1
  pEC50: > 7.00
TRPML2
  pEC50: 6.30 to 7.00

## [2H]C([2H])([2H])C(OC(=O)N1C[C@H](C)N(c2ncnc3c2c(C(F)(F)F)cn3-c2cc(C#N)ccn2)C[C@H]1C)(C([2H])([2H])[2H])C([2H])([2H])[2H] [Compound 518, 2-(methyl-d3)propan-2-yl-1,1,1,3,3,3-d6 (2R,5S)-4-(7-(4-cyanopyridin-2-yl)-5-(trifluoromethyl)-7H-pyrrolo[2,3-d]pyrimidin-4-yl)-2,5-dimethylpiperazine-1-carboxylate]
TRPML3
  pEC50: > 7.00
TRPML1
  pEC50: > 7.00
TRPML2
  pEC50: > 7.00

## C[C@@H]1CN(c2ncnc3c2c(C(F)(F)F)cn3-c2cc(C#N)ccn2)[C@@H](C)CN1C(=O)OC1(C)CC1 [Compound 519, 1-methylcyclopropyl (2R,5S)-4-(7-(4-cyanopyridin-2-yl)-5-(trifluoromethyl)-7H-pyrrolo[2,3-d]pyrimidin-4-yl)-2,5-dimethylpiperazine-1-carboxylate]
TRPML3
  pEC50: > 7.00
TRPML1
  pEC50: > 7.00
TRPML2
  pEC50: 6.30 to 7.00

## C[C@@H]1CN(c2ncnc3c2c(C(F)F)cn3-c2cc(C#N)ccn2)[C@@H](C)CN1C(=O)OC(C)(C)C [Compound 520, tert-butyl (2R,5S)-4-(7-(4-cyanopyridin-2-yl)-5-(difluoromethyl)-7H-pyrrolo[2,3-d]pyrimidin-4-yl)-2,5-dimethylpiperazine-1-carboxylate]
TRPML3
  pEC50: > 7.00
TRPML1
  pEC50: > 7.00
TRPML2
  pEC50: 6.30 to 7.00

## C[C@@H]1CN(c2ncnc3c2c(OC(F)F)cn3-c2cc(Cl)ccn2)[C@@H](C)CN1C(=O)OC(C)(C)C [Compound 521, tert-butyl (2R,5S)-4-(7-(4-chloropyridin-2-yl)-5-(difluoromethoxy)-7H-pyrrolo[2,3-d]pyrimidin-4-yl)-2,5-dimethylpiperazine-1-carboxylate]
TRPML3
  pEC50: > 7.00
TRPML1
  pEC50: > 7.00
TRPML2
  pEC50: 5.70 to 6.30

## C[C@H]1CN(C(=O)OC(C)(C)C)CCN1c1ncnc2c1c(N(C)C1CC1)cn2-c1cccc(Cl)c1 [Compound 522, tert-butyl (S)-4-(7-(3-chlorophenyl)-5-(cyclopropyl(methyl)amino)-7H-pyrrolo[2,3-d]pyrimidin-4-yl)-3-methylpiperazine-1-carboxylate]
TRPML3
  pEC50: > 7.00
TRPML1
  pEC50: 6.30 to 7.00
TRPML2
  pEC50: 6.30 to 7.00

## C[C@@H]1CN(c2ncnc3c2c(OC(F)F)cn3-c2cc(C#N)ccn2)[C@@H](C)CN1C(=O)OC(C)(C)C [Compound 523, tert-butyl (2R,5S)-4-(7-(4-cyanopyridin-2-yl)-5-(difluoromethoxy)-7H-pyrrolo[2,3-d]pyrimidin-4-yl)-2,5-dimethylpiperazine-1-carboxylate]
TRPML3
  pEC50: > 7.00
TRPML1
  pEC50: > 7.00
TRPML2
  pEC50: > 7.00

## C[C@@H]1CN(c2ncnc3c2c(OC(F)(F)F)cn3-c2cc(C#N)ccn2)[C@@H](C)CN1C(=O)OC(C)(C)C [Compound 524, tert-butyl (2R,5S)-4-(7-(4-cyanopyridin-2-yl)-5-(trifluoromethoxy)-7H-pyrrolo[2,3-d]pyrimidin-4-yl)-2,5-dimethylpiperazine-1-carboxylate]
TRPML3
  pEC50: > 7.00
TRPML1
  pEC50: > 7.00
TRPML2
  pEC50: > 7.00

## C[C@@H]1CN(c2ncnc3c2c(C(C)(C)C)cn3-c2cc(C#N)ccn2)[C@@H](C)CN1C(=O)OC(C)(C)C [Compound 525, tert-butyl (2R,5S)-4-(5-(tert-butyl)-7-(4-cyanopyridin-2-yl)-7H-pyrrolo[2,3-d]pyrimidin-4-yl)-2,5-dimethylpiperazine-1-carboxylate]
TRPML3
  pEC50: > 7.00
TRPML1
  pEC50: > 7.00
TRPML2
  pEC50: > 7.00

## C[C@H]1CN(C(=O)OC(C)(C)C)CCN1c1ncnc2c1c(N(C)C1CC1)cn2-c1cccc(C#N)c1 [Compound 526]
TRPML3
  pEC50: 6.30 to 7.00
TRPML1
  pEC50: 6.30 to 7.00
TRPML2
  pEC50: 6.30 to 7.00

## C[C@H]1CN(C(=O)OC(C)(C)C)CCN1c1ncnc2c1c(C1CC1)cn2[C@H]1CCC[C@@H](C#N)C1 [Compound 527, tert-butyl (S)-4-(7-(cis-3-cyanocyclohexyl)-5-cyclopropyl-7H-pyrrolo[2,3-d]pyrimidin-4-yl)-3-methylpiperazine-1-carboxylate]
TRPML3
  pEC50: 5.70 to 6.30
TRPML1
  pEC50: 5.70 to 6.30
TRPML2
  pEC50: < 5.70
